# Reference: patent US7084166B2, “Bis-heterocyclic compounds with antitumour and chemosensitising activity” (Sigma-Tau Industrie Farmaceutichee Riunite S.p.A., priority 2000, dated 2006)
# What was measured:
# Type in all cases: cell-based
# [1] = tested on: HL60 cells (acute promyelocytic leukaemia); experiment: Cell differentiation by reduction of nitroblue tetrazolium (NBT), with suboptimal ATRA; conditions: combined with suboptimal doses of ATRA
# Experimental: (§1) The second line used was the HL60 cell line which responds to ATRA (but is less sensitive than the NB4 cell line).
# (§2) The HL60 and NB4 cells were seeded at a density of 150,000 cells/ml in RPMI 1640 medium containing 10% foetal calf serum, and were treated with the tested compounds in the presence and absence of suboptimal doses of ATRA (5–10 nM for NB4 and 0.5 μM for HL60, respectively) in the dark, and returned to the incubator for 3 days without ever replacing the culture medium.
# (§3) To analyse the differentiative effect of the tested compounds vs ATRA, on the third day of treatment 500,000 viable cells were harvested from each sample, centrifuged for 10 minutes at 1.000 rpm and resuspended in 1 ml of RPMI 1640 medium containing 10% foetal calf serum, 1 mg/ml of nitroblue tetrazolium (NBT) and 100 ng of PMA (phorbol 12-myristate 13-acetate).
# (§4) The cells thus resuspended were incubated in the dark at 37° C. for 60 minutes.
# (§5) At the end of the incubation, the cell suspension was centrifuged for 10 minutes at 10,000 rpm; the pellet obtained was then resuspended in 1 ml of PBS containing 10% Triton X-100 and sonicated to lysis.
# (§6) Spectrophotometric readings of the samples were then taken at a wavelength of 540 nm: samples containing differentiated cells shifted towards a violet colour, whereas control samples and/or samples with non-differentiated cells were colourless or, at any rate, much less intensely coloured.
# (§7) The AC50 (Activating Concentration) is the concentration at which the tested compound induces 50% of cell differentiation.
# (§8) Fold Induction is the increase in the differentiation value of the cell sample treated with the tested compound +ATRA vs the value of the cell sample treated with ATRA alone. This value provides an indication of the ability (potency) of the tested compound to enhance ATRA induced cell differentiation.
# [2] = tested on: NB4 cells (acute promyelocytic leukaemia); experiment: as above; conditions: combined with suboptimal doses of ATRA, NBT
# Experimental: The first line used was the NB4 cell line, bearing the t(15;17) chromosomal translocation which generates the fusion protein PML/RARα. This line is very sensitive to the differentiative action of pharmacological doses of ATRA (10^−7–10^−6 M).
# as §2, §3, §4, §5, §6, §7, §8
# [3] = tested on: MES-SA Dx (human uterine sarcoma); experiment: Cytotoxicity test on resistant tumour cell lines, tested compound alone; conditions: Homo sapiens, MES-SA Dx; 24 h incubation, survival after 48 h; ± SD
# Experimental: (§9) This test was used to evaluate the survival of human cell lines resistant to doxorubicin (about 100 times) and cross-resistant to daunorubicin, actinomycin D, mitoxantrone, vincristine, vinblastin, taxol, colchicine, and etoposide.
# (§10) The following cell lines were used: MCF-7-Dx (human mammary carcinoma), LoVo-Dx (human colon adenocarcinoma), MES-SA Dx (human uterine sarcoma).
# (§11) Before using the association doxorubicin-tested compound, the cytotoxicity of the cells was evaluated with the tested compound (alone) as follows: the cells were incubated with the compound, at scalar concentrations (500 μM÷0.97 μM), for 24 hours; the compound was then removed and cell survival was evaluated after 48 hours with the above-mentioned sulforodamine B test. The antiproliferative activity of the compounds was evaluated in terms of IC50 (concentration of the compound that inhibits 50% of cell survival) processed with the above-mentioned curve-fitting program.
# [4] = tested on: MCF-7-Dx (human mammary carcinoma); experiment: as above; conditions: Homo sapiens, MCF7/DX, 24 h incubation, survival after 48 h; ± SD
# Experimental: as §9, §10, §11
# [5] = tested on: LoVo-Dx (human colon adenocarcinoma); experiment: as above; conditions: Homo sapiens, LoVo/DX; 24 h incubation, survival after 48 h; ± SD
# Experimental: as §9, §10, §11
# [6] = tested on: MCF-7 (human mammary carcinoma); experiment: Cytotoxicity test on sensitive tumour cell lines (sulforodamine B test); conditions: Homo sapiens, MCF7; 24 h incubation, survival after 48 h; ± S.D.; read-out: antiproliferative activity IC50, MCF-7
# Experimental: (§12) This test was used to evaluate the survival of the human cell lines MCF-7 (human mammary carcinoma), LoVo (human colon adenocarcinoma), and MES-SA (human uterine sarcoma). The tumour cells were incubated with the compound, at scalar concentrations, (500 μM÷0.97 μM) for 24 hours; the compound was then removed and cell survival was evaluated after 48 hours using the sulforodamine B test (J. Natl. Cancer Inst. 82, 1107–1112). The antiproliferative activity of the compounds was evaluated in terms of the IC50 (concentration of the molecule that inhibits 50% of cell survival) processed with a curve-fitting program (Am. J. Physiol. 1978., 235, E97–E102) and expressed as μM±S.D.
# [7] = tested on: MES-SA (human uterine sarcoma); experiment: as above; conditions: Homo sapiens, MES-SA; 24 h incubation, survival after 48 h; ± S.D.; read-out: antiproliferative activity IC50, Mes-Sa
# Experimental: as §12
# [8] = tested on: LoVo (human colon adenocarcinoma); experiment: as above; conditions: Homo sapiens, LoVo; 24 h incubation, survival after 48 h; ± S.D.; read-out: antiproliferative activity IC50, Lovo
# Experimental: as §12
# [9] = tested on: HL60 cells (acute promyelocytic leukaemia); experiment: Flow cytofluorimetric analysis of cell cycle; conditions: for G0/G1 / G2/M / S: day 3
# Experimental: as §1, §2
# To assess the effect of the tested compounds on the various phases of the cell cycle, on the third day of treatment 500,000 cells were harvested, centrifuged at 1,000 rpm for 10 minutes, washed twice in PBS w/o (PBS without calcium and magnesium) and fixed in a solution of 50% PBS w/o+50% methanol/acetone (1:4 v/v) for at least 1 hour; the cells were then centrifuged as described, washed in PBS w/o and centrifuged again.
# 200 μl of propidium iodide 100 μg/ml and 200 μl of RNase 150 kU/mg were then added to the cell pellet.
# After a 30-min incubation in the dark at room temperature, the samples were analysed by flow cytofluirometry.
smiles,measurement,setting,value
"OCCCCC(c1c[nH]c2cc3c(cc12)OCO3)c1c[nH]c2cc3c(cc12)OCO3 [ST 1422, 5-hydroxy-1,1-di-(5,6-methylenedioxy-indol-3-yl)-pentane]",AC50,"[1]; Homo sapiens, HL-60, 72 h, 3 days, read-out: AC50 (concentration at which the tested compound induces 50% of cell differentiation)",13.6 ± 2.6 µM
same,"fold induction (differentiation, compound + ATRA vs ATRA alone)",[1],2.2
same,AC50,"[2]; Homo sapiens, NB-4, 72 h, 3 days, read-out: AC50 (concentration at which the tested compound induces 50% of cell differentiation)",9.8 ± 0.1 µM
same,"fold induction (differentiation, compound + ATRA vs ATRA alone)",[2],1.85
same,IC50,[3],73.3 ± 2.7 µM
same,IC50,[4],40.1 ± 1.2 µM
same,IC50,[5],22.3 ± 2.9 µM
same,IC50,[6],43.1 ± 1.2 µM
same,IC50,[7],79.3 ± 7.8 µM
same,IC50,[8],23 ± 4.4 µM
same,G0/G1,[9]; compound 1 μM + ATRA 0.5 μM,66.8
same,G2/M,[9]; compound 1 μM + ATRA 0.5 μM,11.0
same,S,[9]; compound 1 μM + ATRA 0.5 μM,22.2
same,G0/G1,[9]; compound 5 μM + ATRA 0.5 μM,65.1
same,G2/M,[9]; compound 5 μM + ATRA 0.5 μM,11.4
same,S,[9]; compound 5 μM + ATRA 0.5 μM,23.5
same,G0/G1,[9]; compound 10 μM + ATRA 0.5 μM,62.5
same,G2/M,[9]; compound 10 μM + ATRA 0.5 μM,12.5
same,S,[9]; compound 10 μM + ATRA 0.5 μM,25.0
same,G0/G1,[9]; compound 50 μM + ATRA 0.5 μM,75.7
same,G2/M,[9]; compound 50 μM + ATRA 0.5 μM,13.8
same,S,[9]; compound 50 μM + ATRA 0.5 μM,10.5
same,effect of the compound alone on induction of apoptosis (in words),[9]; compound alone,showed no effect on the induction of apoptosis
same,G0/G1,[9]; compound alone 1 μM,56.2
same,G2/M,[9]; compound alone 1 μM,10.0
same,S,[9]; compound alone 1 μM,33.8
same,G0/G1,[9]; compound alone 5 μM,57.6
same,G2/M,[9]; compound alone 5 μM,10.4
same,S,[9]; compound alone 5 μM,32.0
same,G0/G1,[9]; compound alone 10 μM,57.8
same,G2/M,[9]; compound alone 10 μM,10.5
same,S,[9]; compound alone 10 μM,31.7
same,G0/G1,[9]; compound alone 50 μM,65.8
same,G2/M,[9]; compound alone 50 μM,16.4
same,S,[9]; compound alone 50 μM,17.8
